Here are results for nine compounds from BindingDB's records for doi:10.1021/jm960274q (Basf, 1996).

The assay has as its target Endothelin receptor type B (Cavia porcellus). The assay is described as follows: Binding affinity towards Endothelin B receptor by measuring its ability to displace [125I]ET-3 from guinea pig cerebellum.
On to `COc1cc(OC)nc(OC(C(=O)O)C(OC)(c2cccc(C)c2)c2cccc(C)c2)n1` (centres undefined) [2-(4,6-Dimethoxy-pyrimidin-2-yloxy)-3-methoxy-3,3-di-m-tolyl-propionic acid], for which affinity was put at a Ki of 1.3 µM. To `COc1cc(OC)nc(OC(C(=O)O)C(Oc2ccccc2)(c2ccccc2)c2ccccc2)n1` (centres undefined) [2-(4,6-Dimethoxy-pyrimidin-2-yloxy)-3-phenoxy-3,3-diphenyl-propionic acid] belongs 1.5 µM; to `COc1cc(OC)nc(OC(C(=O)O)C(OC)(c2ccc(C)cc2)c2ccc(C)cc2)n1` (centres undefined) [2-(4,6-Dimethoxy-pyrimidin-2-yloxy)-3-methoxy-3,3-di-p-tolyl-propionic acid], 1 µM. To `COc1cc(OC)nc(OC(C(=O)O)C(OC)(c2ccc(Cl)cc2)c2ccc(Cl)cc2)n1` (centres undefined) [3,3-Bis-(4-chloro-phenyl)-2-(4,6-dimethoxy-pyrimidin-2-yloxy)-3-methoxy-propionic acid] belongs 1.3 µM; to `COc1cc(OC)nc(OC(C(=O)O)C(OC)(c2cccc(F)c2)c2cccc(F)c2)n1` (centres undefined) [2-(4,6-Dimethoxy-pyrimidin-2-yloxy)-3,3-bis-(3-fluoro-phenyl)-3-methoxy-propionic acid], 1.8 µM. In turn, `COc1cc(OC)nc(OC(C(=O)O)C(O)(c2ccccc2)c2ccccc2)n1` (centres undefined) [2-(4,6-Dimethoxy-pyrimidin-2-yloxy)-3-hydroxy-3,3-diphenyl-propionic acid] displayed a Ki of 3.5 µM.

As for `CCc1cc(C)nc(OC(C(=O)O)C(OC)(c2ccccc2)c2ccccc2)n1` (centres undefined) [2-(4-Ethyl-6-methyl-pyrimidin-2-yloxy)-3-methoxy-3,3-diphenyl-propionic acid], the affinity, expressed as Ki, was 0.16 µM.

In turn, `CCOc1cc(OCC)nc(OC(C(=O)O)C(OC)(c2ccccc2)c2ccccc2)n1` (centres undefined) [2-(4,6-Diethoxy-pyrimidin-2-yloxy)-3-methoxy-3,3-diphenyl-propionic acid] displayed a Ki of 2.5 µM. To `COc1cc(OC)nc(OC(C(=O)O)C(OC)(c2ccccc2F)c2ccccc2F)n1` (centres undefined) [2-(4,6-Dimethoxy-pyrimidin-2-yloxy)-3,3-bis-(2-fluoro-phenyl)-3-methoxy-propionic acid] belongs 6 µM.

Usually Ki stands for a measure of affinity in units of concentration, obtained from inhibition or displacement. A low value points to tighter binding.
